Measurements taken from patent publication US9108944B2, “Androgen receptor modulators and uses thereof” (ARAGON PHARMACEUTICALS, INC., priority 2010, dated 2015).

Tests used:
[1] = target: T1, AR-VP16 (Homo sapiens, UniProt P10275); experiment: AR-VP16 DNA Binding Assay, antagonist mode (HepG2 cells, 0.1 nM R1881); format: cell-based
T1 sequence (P10275 560-920 limits assumed): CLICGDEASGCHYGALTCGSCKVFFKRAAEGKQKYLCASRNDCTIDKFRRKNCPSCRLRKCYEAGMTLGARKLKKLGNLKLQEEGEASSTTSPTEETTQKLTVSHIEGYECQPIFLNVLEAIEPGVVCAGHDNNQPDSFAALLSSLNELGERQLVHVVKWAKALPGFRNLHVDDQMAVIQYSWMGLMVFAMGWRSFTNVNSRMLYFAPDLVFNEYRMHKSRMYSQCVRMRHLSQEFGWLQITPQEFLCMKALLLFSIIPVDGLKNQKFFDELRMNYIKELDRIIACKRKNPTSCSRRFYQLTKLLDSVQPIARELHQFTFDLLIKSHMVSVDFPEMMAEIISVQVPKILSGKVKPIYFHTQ
Outline: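 HepG2 cells transiently transfected with AR-VP16 (Lipofectin), incubated overnight, then treated with compound in RPMI with charcoal-stripped serum. Antagonist mode adds R1881 at 0.1 nM final. Cells lysed after 48 h incubation for read-out.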

[2] = target: T1, AR-VP16; experiment: AR-VP16 DNA Binding Assay, agonist mode (HepG2 cells); format: cell-based; conditions: Emax >20x DMSO control = agonist

## Cc1cc(N2C(=O)C3(CCC3)N(c3ccc(C(=O)Nc4cncc(F)c4)c(F)c3)C2=S)cnc1C#N [Compound 305, 4-(7-(6-Cyano-5-methylpyridin-3-yl)-8-oxo-6-thioxo-5,7-diazaspiro[3.4]octan-5-yl)-2-fluoro-N-(5-fluoropyridin-3-yl)benzamide]
[1]
  IC50: < 1 µM
[2]
  ARVP16 DNA Binding Assay (Agonist mode): Agonist?: No (Agonist defined as a compound whose Emax in the ARVP16 DNA Binding Assay (Agonist mode) is >20x DMSO control)

## N#Cc1ncc(N2C(=O)C3(CCC3)N(c3ccc(OCc4ccccc4)c(F)c3)C2=S)cc1C(F)(F)F [Compound 128, 5-(5-(4-(Benzyloxy)-3-fluorophenyl)-8-oxo-6-thioxo-5,7-diazaspiro[3.4]octan-7-yl)-3-(trifluoromethyl)picolinonitrile]
[1]
  IC50: < 1 µM
[2]
  ARVP16 DNA Binding Assay (Agonist mode): Agonist?: No (Agonist defined as a compound whose Emax in the ARVP16 DNA Binding Assay (Agonist mode) is >20x DMSO control)

## N#Cc1ncc(N2C(=O)C3(CCC3)N(c3ccc(F)c(OCCc4ccncc4)c3)C2=S)cc1C(F)(F)F [Compound 160, 5-(5-(4-Fluoro-3-(2-(pyridin-4-yl)ethoxy)phenyl)-8-oxo-6-thioxo-5,7-diazaspiro[3.4]octan-7-yl)-3-(trifluoromethyl)picolinonitrile]
[1]
  IC50: > 1 µM
[2]
  ARVP16 DNA Binding Assay (Agonist mode): Agonist?: No (Agonist defined as a compound whose Emax in the ARVP16 DNA Binding Assay (Agonist mode) is >20x DMSO control)

## COC(=O)CCCc1ccc(N2C(=S)N(c3cnc(C#N)c(C(F)(F)F)c3)C(=O)C23CCC3)cc1 [Compound 122, Methyl 4-(4-(7-(6-cyano-5-(trifluoromethyl)pyridin-3-yl)-8-oxo-6-thioxo-5,7-diazaspiro[3.4]octan-5-yl)phenyl)butanoate]
[1]
  IC50: > 1 µM
[2]
  ARVP16 DNA Binding Assay (Agonist mode): Agonist?: No (Agonist defined as a compound whose Emax in the ARVP16 DNA Binding Assay (Agonist mode) is >20x DMSO control)

## Cc1ccc(N2C(=S)N(c3cnc(C#N)c(C(F)(F)F)c3)C(=O)C2(C)C)cc1 [Compound 33, 5-(4,4-Dimethyl-5-oxo-2-thioxo-3-(p-tolyl)imidazolidin-1-yl)-3-(trifluoromethyl)picolinonitrile]
[1]
  IC50: < 1 µM
[2]
  ARVP16 DNA Binding Assay (Agonist mode): Agonist?: No (Agonist defined as a compound whose Emax in the ARVP16 DNA Binding Assay (Agonist mode) is >20x DMSO control)

## CN1CCN(CCCOc2ccc(N3C(=S)N(c4cnc(C#N)c(C(F)(F)F)c4)C(=O)C34CCC4)c(F)c2)CC1 [Compound 184, 5-(5-(2-Fluoro-4-(3-(4-methylpiperazin-1-yl)propoxy)phenyl)-8-oxo-6-thioxo-5,7-diazaspiro[3.4]octan-7-yl)-3-(trifluoromethyl)picolinonitrile]
[1]
  IC50: < 1 µM
[2]
  ARVP16 DNA Binding Assay (Agonist mode): Agonist?: Yes (Agonist defined as a compound whose Emax in the ARVP16 DNA Binding Assay (Agonist mode) is >20x DMSO control)

## N#Cc1ncc(N2C(=O)C3(CCC3)N(c3ccc(F)c(C(=O)NCCN4CCOCC4)c3)C2=S)cc1C(F)(F)F [Compound 253, 5-(7-(6-Cyano-5-(trifluoromethyl)pyridin-3-yl)-8-oxo-6-thioxo-5,7-diazaspiro[3.4]octan-5-yl)-2-fluoro-N-(2-morpholinoethyl)benzamide]
[1]
  IC50: > 1 µM
[2]
  ARVP16 DNA Binding Assay (Agonist mode): Agonist?: No (Agonist defined as a compound whose Emax in the ARVP16 DNA Binding Assay (Agonist mode) is >20x DMSO control)

## CS(=O)(=O)N1CCC(Oc2ccc(N3C(=S)N(c4cnc(C#N)c(C(F)(F)F)c4)C(=O)C34CCC4)cc2)CC1 [Compound 219, 5-(5-(4-((1-(methylsulfonyl)piperidin-4-yl)oxy)phenyl)-8-oxo-6-thioxo-5,7-diazaspiro[3.4]octan-7-yl)-3-(trifluoromethyl)picolinonitrile]
[1]
  IC50: < 1 µM
[2]
  ARVP16 DNA Binding Assay (Agonist mode): Agonist?: Yes (Agonist defined as a compound whose Emax in the ARVP16 DNA Binding Assay (Agonist mode) is >20x DMSO control)

## N#Cc1ncc(N2C(=O)C3(CCC3)N(c3ccc(F)cc3F)C2=S)cc1C(F)(F)F [Compound 76, 5-(5-(2,4-Difluorophenyl)-8-oxo-6-thioxo-5,7-diazaspiro[3.4]octan-7-yl)-3-(trifluoromethyl)picolinonitrile]
[1]
  IC50: < 1 µM
[2]
  ARVP16 DNA Binding Assay (Agonist mode): Agonist?: Yes (Agonist defined as a compound whose Emax in the ARVP16 DNA Binding Assay (Agonist mode) is >20x DMSO control)

## CNC(=O)c1ccc(N2C(=S)N(c3cnc(C#N)c(OC)c3)C(=O)C23CCC3)cc1F [Compound 60, 4-(7-(6-Cyano-5-methoxypyridin-3-yl)-8-oxo-6-thioxo-5,7-diazaspiro[3.4]octan-5-yl)-2-fluoro-N-methylbenzamide]
[1]
  IC50: < 1 µM
[2]
  ARVP16 DNA Binding Assay (Agonist mode): Agonist?: Yes (Agonist defined as a compound whose Emax in the ARVP16 DNA Binding Assay (Agonist mode) is >20x DMSO control)

## CN1CCN(CCOc2ccc(N3C(=S)N(c4cnc(C#N)c(C(F)(F)F)c4)C(=O)C34CCC4)cc2F)CC1 [Compound 149, 5-(5-(3-Fluoro-4-(2-(4-methylpiperazin-1-yl)ethoxy)phenyl)-8-oxo-6-thioxo-5,7-diazaspiro[3.4]octan-7-yl)-3-(trifluoromethyl)picolinonitrile]
[1]
  IC50: < 1 µM
[2]
  ARVP16 DNA Binding Assay (Agonist mode): Agonist?: No (Agonist defined as a compound whose Emax in the ARVP16 DNA Binding Assay (Agonist mode) is >20x DMSO control)

## COc1cc(N2C(=O)C3(CCC3)N(c3ccc(C)cc3)C2=S)cnc1C#N [Compound 59, 3-Methoxy-5-(8-oxo-6-thioxo-5-(p-tolyl)-5,7-diazaspiro[3.4]octan-7-yl)picolinonitrile]
[1]
  IC50: < 1 µM
[2]
  ARVP16 DNA Binding Assay (Agonist mode): Agonist?: No (Agonist defined as a compound whose Emax in the ARVP16 DNA Binding Assay (Agonist mode) is >20x DMSO control)

## N#Cc1ncc(N2C(=O)C3(CCC3)N(c3ccc4ncoc4c3)C2=S)cc1C(F)(F)F [Compound 125, 5-(5-(Benzo[d]oxazol-6-yl)-8-oxo-6-thioxo-5,7-diazaspiro[3.4]octan-7-yl)-3-(trifluoromethyl)picolinonitrile]
[1]
  IC50: < 1 µM
[2]
  ARVP16 DNA Binding Assay (Agonist mode): Agonist?: No (Agonist defined as a compound whose Emax in the ARVP16 DNA Binding Assay (Agonist mode) is >20x DMSO control)

## N#Cc1ncc(N2C(=O)C3(CCC3)N(c3cccc(F)c3F)C2=S)cc1C(F)(F)F [Compound 72, 5-(5-(2,3-Difluorophenyl)-8-oxo-6-thioxo-5,7-diazaspiro[3.4]octan-7-yl)-3-(trifluoromethyl)picolinonitrile]
[1]
  IC50: < 1 µM
[2]
  ARVP16 DNA Binding Assay (Agonist mode): Agonist?: Yes (Agonist defined as a compound whose Emax in the ARVP16 DNA Binding Assay (Agonist mode) is >20x DMSO control)

## N#Cc1ncc(N2C(=O)C3(CCC3)N(c3ccc(OCCN4CCOCC4)c(F)c3)C2=S)cc1C(F)(F)F [Compound 143, 5-(5-(3-Fluoro-4-(2-morpholinoethoxy)phenyl)-8-oxo-6-thioxo-5,7-diazaspiro[3.4]octan-7-yl)-3-(trifluoromethyl)picolinonitrile]
[1]
  IC50: < 1 µM
[2]
  ARVP16 DNA Binding Assay (Agonist mode): Agonist?: Yes (Agonist defined as a compound whose Emax in the ARVP16 DNA Binding Assay (Agonist mode) is >20x DMSO control)

## CCOC(=O)CNC(=O)c1ccc(N2C(=S)N(c3cnc(C#N)c(C(F)(F)F)c3)C(=O)C23CCC3)cc1F [Compound 245, Ethyl 2-(4-(7-(6-cyano-5-(trifluoromethyl)pyridin-3-yl)-8-oxo-6-thioxo-5,7-diazaspiro[3.4]octan-5-yl)-2-fluorobenzamido)acetate]
[1]
  IC50: > 1 µM
[2]
  ARVP16 DNA Binding Assay (Agonist mode): Agonist?: No (Agonist defined as a compound whose Emax in the ARVP16 DNA Binding Assay (Agonist mode) is >20x DMSO control)

## Cc1cc(N2C(=O)C3(CCC3)N(c3ccc(C(=O)Nc4ccccc4F)c(F)c3)C2=S)cnc1C#N [Compound 297, 4-(7-(6-Cyano-5-methylpyridin-3-yl)-8-oxo-6-thioxo-5,7-diazaspiro[3.4]octan-5-yl)-2-fluoro-N-(2-fluorophenyl)benzamide]
[1]
  IC50: < 1 µM
[2]
  ARVP16 DNA Binding Assay (Agonist mode): Agonist?: No (Agonist defined as a compound whose Emax in the ARVP16 DNA Binding Assay (Agonist mode) is >20x DMSO control)

## Cc1ccc(N2C(=S)N(c3cnc(C#N)c(Cl)c3)C(=O)C23CCC3)cc1 [Compound 57, 3-Chloro-5-(8-oxo-6-thioxo-5-(p-tolyl)-5,7-diazaspiro[3.4]octan-7-yl)picolinonitrile]
[1]
  IC50: < 1 µM
[2]
  ARVP16 DNA Binding Assay (Agonist mode): Agonist?: No (Agonist defined as a compound whose Emax in the ARVP16 DNA Binding Assay (Agonist mode) is >20x DMSO control)

## Cc1ccc(N2C(=S)N(c3cnc(C#N)c4ccccc34)C(=O)C23CCC3)cc1 [Compound 65, 4-(8-Oxo-6-thioxo-5-(p-tolyl)-5,7-diazaspiro[3.4]octan-7-yl)isoquinoline-1-carbonitrile]
[1]
  IC50: < 1 µM
[2]
  ARVP16 DNA Binding Assay (Agonist mode): Agonist?: Yes (Agonist defined as a compound whose Emax in the ARVP16 DNA Binding Assay (Agonist mode) is >20x DMSO control)

## Cn1ncc(Br)c1CCNC(=O)c1ccc(N2C(=S)N(c3cnc(C#N)c(C(F)(F)F)c3)C(=O)C23CCC3)cc1F [Compound 256, N-(2-(4-Bromo-1-methyl-1H-pyrazol-5-yl)ethyl)-4-(7-(6-cyano-5-(trifluoromethyl)pyridin-3-yl)-8-oxo-6-thioxo-5,7-diazaspiro[3.4]octan-5-yl)-2-fluorobenzamide]
[1]
  IC50: < 1 µM
[2]
  ARVP16 DNA Binding Assay (Agonist mode): Agonist?: No (Agonist defined as a compound whose Emax in the ARVP16 DNA Binding Assay (Agonist mode) is >20x DMSO control)
